Assay: Glass transition temperature by differential scanning calorimetry (DSC)
Type: physicochemical
Conditions: trehalose lyophilized in the same manner as the composition; average of samples
Procedure: The glass transition temperatures referred to herein (e.g., Tg(s) and Tg(c)) are the transition temperatures determined using differential scanning calorimetry (DSC). DSC measures the change in heat capacity between the glassy and rubbery states and is typically indicated by a change in baseline in a DSC thermogram.
The Tg(c) of the lyophilized composition was determined using a DSC Q2000 (TA Instruments) under a stream of nitrogen gas at 50 mL/minute as the purge gas. Several samples of the lyophilized composition (each about 5 mg) were prepared in a nitrogen purged glove box, and each was loaded into an aluminum DSC pan and hermetically sealed. The pans along with an empty pan as control were run in the DSC. The pans were first equilibrated at 25° C., then modulated at ±0.5° C. every 60 seconds, and then the temperature was raised at a rate of 2.5° C. per minute to a final temperature of 140° C. The samples was determined to have a Tg(c) of 97±2° C.
Several samples of trehalose were lyophilized in the same manner as set forth above for the caspofungin diacetate composition. The glass transition temperature Tg(s) of each of the lyophilized trehalose samples was determined using the instrument and procedure employed to determine Tg(c) described in the preceding paragraph. The average Tg(s) of the samples was 118±2° C.

OC[C@H]1O[C@H](O[C@H]2O[C@H](CO)[C@@H](O)[C@H](O)[C@H]2O)[C@H](O)[C@@H](O)[C@@H]1O [trehalose]
Tg(s): 118±2 °C

Reference: patent US8551942B2, “Lyophilized anti-fungal compositions” (Merck Sharp & Dohme Corp., priority 2007, dated 2013)
